Data: patent US12714722B2, “Cancer combination therapies utilizing a nicotinamide phosphoribosyltransferase inhibitor in combination with a nicotinamide adenine dinucleotide salvage pathway precursor” (Fred Hutchinson Cancer Center, priority 2019, dated 2026)
“Also recorded” adds a separate entry of the source.

Columns and labels:
GSC 0131 NMRK1 KO = assay: Cell viability, FK866 with or without NMN, in GSC 0131 with NMRK1 knockout; type: cell-based, human; parameters: key to viability compared to No drug control: +: indicates similar viability compared to parental cells in ″No drug control″; −: indicates significantly diminished viability (as determined by Student's t-test)
Method: (§1) Methods. Cell culture. NSC and GSC lines were grown in NeuroCult NS-A basal medium (StemCell Technologies) supplemented with B27 (Thermo Fisher), N2 (2× stock in Advanced DMEM/F-12 (Fisher) with 25 μg/mL insulin (Sigma), 100 μg/mL apo-Transferrin (Sigma), 6 ng/mL progesterone (Sigma), 16 μg/mL putrescine (Sigma), 30 nM sodium selenite (Sigma), and 50 μg/mL bovine serum albumin (Sigma), and EGF and FGF-2 (20 ng/mL each) (Peprotech) on laminin (Sigma or Trevigen) coated polystyrene plates and passaged according to previously published protocols (Pollard et al., Cell Stem Cell. 2009; 4(6):568-80). Cells were detached from their plates using Accutase (Thermo Fisher). 293T (ATCC) cells were grown in 10% FBS/DMEM (Invitrogen).
(§2) In addition, knockout of NMRK1 in GSC 0131 cells should replicate the effect of FK866 seen in GSC 0827 cells.
NMRK1 knockout. Using nucleofection (4D-Nucleofector; Amaxa) in combination with Cas9:sgRNA complexes (Synthego). Using the Synthego prediction software, 3 synthetic sgRNA guides were generated to give indel formation within the NMRK1 transcript.
Synthetic guides were mixed with recombinant cas9 and nucleofected using an Amaxa 96-well nucleofection system. Indel formation was highest with guides 1 and 2, and lowest with guide 3. Combining guides 1 and 2 yielded >90% indel formation. […]

[1] = test system: GSCs (0131 and 0827) and control hNPC-CB660 cells; assay: Metabolic inhibitor library screen and retest, GSCs versus control neural stem cells; type: cell-based, human; details: 48 hrs; Cell titerglo assay; n=3
Method: Example 1. To Identify New Metabolic Vulnerabilities in Human GSCs, a Chemical Library screen was performed using […] inhibitors of metabolic enzymes in two GSCs (0131 and 0827) and control hNPC-CB660 cells. […] To further explore this phenotype, an NAD salvage substrate, NMN was used, to bypass the requirement for NAMPT and rescue cytotoxicity. NMN is a substrate for the ectoenzyme CD73 (Ratajczak J et al., Nature communications. 2016; 7:13103), which generates NR, which is transported intracellular by equilibrative nucleoside transporters. (Nikiforov et al., J Biol Chem. 2011; 286(24):21767-78.) Intracellular NR is phosphorylated by NMRK in a NAMPT-independent NAD salvage pathway.
Methods. Cell culture. […]
Metabolic inhibitors screen protocol and data analysis. […] After 48 hours, cell viability was measured via Cell-Titer-Glo. […]

CB660 = assay: Cell viability (Cell-Titer-Glo), FK866 with or without NMN, in NSC-CB660; type: cell-based, human; parameters: key: +: indicates similar viability compared to parental cells in ″No drug control″; −: indicates significantly diminished viability (as determined by Student's t-test); details: CB660 cells; FK-866 alone or with NMN
GSC 0827 + NMRK1 = assay: Cell viability, FK866 with or without NMN, in GSC 0827 ectopically expressing NMRK1; type: cell-based, human; parameters: key to viability compared to No drug control: +: indicates similar viability compared to parental cells in ″No drug control″; −: indicates significantly diminished viability (as determined by Student's t-test)
Method: as §1, §2
Cloning of NMRK1 ORF and NMRK1 complementation studies. […] This could be used as negative control for transfection purposes.
NMRK1 was then synthesized as a g-block based on HEK293T genomic DNA sequence:
Insertion of the purified product into vector was accomplished via Gibson assembly using NEB HiFi DNA Assembly Master Mix Kit with BamHI pre-cut pLX304 vector for expression in GBM cell lines.
Once cloned into the pLX304 backbone, the NMRK1 expressing plasmid was prepared for nucleofection and introduced into GBM 0827 cell lines. […]

[2] = cited from earlier work
GSC 0827 = assay: Cell viability, FK866 with or without NMN, in GSC 0827 (NMRK1 low); type: cell-based, human; parameters: key to viability compared to No drug control: +: indicates similar viability compared to parental cells in ″No drug control″; −: indicates significantly diminished viability (as determined by Student's t-test); details: for rescue of FK866-treated cells with NMN: GSC-0827 cells, in the presence of FK866
Method: as §1
Metabolic inhibitors screen protocol and data analysis. 230 metabolic inhibitors were screened in GSC lines (0131 and 827) and NSC CB660 cell line grown in 96-well optical bottom plates. After 24 hours, inhibitors were diluted in cell media and added to plated cells. Inhibitor concentration was based on IC 50 for the target enzymes, with 1× being the IC50 0.25× being the lower concentration and 5× being the higher concentration. Each concentration was tested in triplicate. After 48 hours, cell viability was measured via Cell-Titer-Glo. A z-score was established for each compound concentration, based on Untreated and Puromycin treated cells. Positive candidates were defined as compounds with a z-score less than that of CB660 cells. Positive candidates were rescreened to verify results.
NMN and NR Complementation studies. To verify if selectivity of NAMPT inhibition relied on downregulation of salvaging pathways, 827 cells were tested on cell viability in the presence of FK866 and the addition of NMN.

GSC 0131 = assay: Cell viability, FK866 with or without NMN, in GSC 0131; type: cell-based, human; parameters: key to viability compared to No drug control: +: indicates similar viability compared to parental cells in ″No drug control″; −: indicates significantly diminished viability (as determined by Student's t-test)

Row | SMILES | viability compared to No drug control (GSC 0131 NMRK1 KO; GSC 0131 NMRK1 KO cells, FK-866 alone or with NMN) | selectivity of cytotoxicity for GSCs over neural stem cells [1] | viability compared to No drug control (CB660) | viability compared to No drug control (GSC 0827 + NMRK1; GSC 0827 + NMRK1 cells, FK-866 alone or with NMN) | toxicity in clinical trials [2] | viability compared to No drug control (GSC 0827; GSC 0827 cells, FK-866 alone or with NMN) | rescue of FK866-treated cells with NMN (GSC 0827) | viability compared to No drug control (GSC 0131; GSC 0131 cells, FK-866 alone or with NMN) | rescue of FK866-treated cells with NMN (GSC 0131 NMRK1 KO; GSC-0131 cells with NMRK1 knockout, in the presence of FK866) | rescue of FK866-treated cells with NMN (GSC 0827 + NMRK1; GSC-0827 cells with ectopic NMRK1 expression, in the presence of FK866) | rescue of FK866-treated cells with NMN (GSC 0131; GSC-0131 cells, in the presence of FK866)
1 | O=C(/C=C/c1cccnc1)NCCCCC1CCN(C(=O)c2ccccc2)CC1 [FK866, (E)-N-[4-(1-benzoyl-4-yl)-butyl]-3-(pyridin-3-yl) acrylamide] | − | GSC-selective cytotoxicity; also recorded: GSC and transformation specificity | + | − | dose-limiting toxicities | − | remained exquisitely sensitive; also recorded: cannot be overcome | − |  |  | 
2 | NC(=O)c1ccc[n+]([C@@H]2O[C@H](COP(=O)([O-])O)[C@@H](O)[C@H]2O)c1 [NMN, nicotinamide mononucleotide] |  |  |  |  |  |  | not |  | rescue was prevented | sufficient to rescue; also recorded: demonstrated rescue; also recorded: allows utilization | could be rescued; also recorded: sufficient to rescue; also recorded: can be complemented
